From patent publication US6818621B2, “Osteopontin-derived chemotactic and inhibitory agents and uses therefor” (Children's Medical Center Corporation, priority 1999, dated 2004) come the findings set out here.

Marks after values point to notes of the source that are not given here.

The test system of test [1] is MDA-MB-231 cells (CD44+ human breast adenocarcinoma cells). The experiment in a line: Chemotactic chamber (Boyden) assay, migration through polycarbonate filters. To be noted: for mean number of migrating cells per random high power field: Table 1, 4 hours; for mean number of migrating cells per six random high powered fields: Table 2; for Migratory Index: Table 3, cells migrating in response to peptide/cells migration in response to LVLDPK; for MI buffer / MI: Table 4; for MI buffer: cells migrating in response to peptide divided by cells migrating in response to buffer; for MI: migratory index; for chemotactic response of MDA-MB231 (in words): p<0.01, 200 ng of bone OPN. It is filed as cell-based. Here is the method:
Each peak was then tested for mediation of chemotaxis or for its ability to inhibit OPN mediated chemotaxis using the chemotactic assay as follows (see e.g., Weber et al. (1996) Science 271:509-512). Briefly, uncoated polycarbonated filters (pore size […] ) were used to separate the upper and lower chambers of chemotactic wells. 1×10^3 MDA-MB-231 cells (CD44^+human breast adenocarcinoma cells) were added to the upper chamber and incubated in the presence or absence of the indicated 50 pmols peptide. After 4 hours, the filters were removed, fixed in methanol arid stained with hematoxylin and eosin. Cells which have responded to the peptide, migrate to various areas of the lower surface and can be counted microscopically. Each data point is reported as the mean number of migrating cells per random high power field.
Peptide 51 was identified as being chemotactic. The peptide was sequenced using a gas-phase sequenator and determined to have the sequence LVLDPK (SEQ ID NO:1). To confirm that chemotaxis was due to this peptide, a 16 amino acid peptide spanning the chemotactic sequence in OPN was synthesized and tested for its chemotactic properties. The resulting peptide, SP64 has the sequence KFHSHKDKLVLDPKSK (SEQ ID NO:2) and containing the chemotactic sequence from residues 9-14. 2×10^4 MDA-MB-231 cells were assayed for chemotactic response to the indicated peptides as described above. Each data point is reported as the mean number of migrating cells per six random high powered fields ± standard error of the mean. Each experiment was repeated four times.
To test the amino acid specificity for chemotactic response several substitutions were created in the chemotactic sequence and the new peptides tested for their ability to induce chemotaxis. Data are expressed as migratory index (cells migrating in response to peptide/cells migration in response to LVLDPK, SEQ ID NO:1).
(§1) To evaluate the potential of peptide analogues to inhibit OPN induced chemotaxis, 100 nmoles of peptide was added to the lower compartment and the response of these cells to OPN was determined as described. MI(buffer) was calculated by dividing the number of cells migrating in response to peptide by the number of cells migrating in response to buffer. MI(inhibitory) equals the number of cells migrating towards OPN in the presence of buffer divided by the number migrating towards OPN in the presence of peptide.

Test [2] has as its system MDA-MB-231 cells. The experiment in a line: Inhibition of OPN induced chemotaxis in the chemotactic chamber assay. It is filed as cell-based, human. Particulars: Table 4; 100 nmoles of peptide; cells migrating towards OPN in presence of buffer divided by number migrating towards OPN in presence of peptide. Here is the method:
as §1

Test [3] relates to cells recruited into the peritoneum. Briefly: In vivo chemotaxis after injection of peptide into the peritoneal cavity, lavage and flow cytometry. The arrangement: species or system C57 black mice. To be noted: for induction ratio, Total / induction ratio, Total CD44 / induction ratio, B-lymphocytes / induction ratio, T-lymphocytes / induction ratio, Monocytes: 25 nmols i.p., 6 hours, normalized to PBS-injected mouse, average of 6 mice; for induction ratio, B-lymphocytes: B220+; for induction ratio, T-lymphocytes: CD3+; for induction ratio, Monocytes: Mac-1+; for chemotactic activity in vivo (in words): mouse. Here is the method:
Since the peptide LVLDPK (SEQ ID NO:1) was chemotactic to tumor cells and macrophages in vitro, we tested whether the peptide was chemotactic in vivo. 25 nmols of the peptide were injected into the peritoneal cavity of C57 black mice. After six hours the cells recruited into the peritoneum were recovered by lavage and identified by flow cytometry. Titration of soluble peptides into the peritoneum induces a cellular infiltrate in a dose dependent manner. The induction ratio is the number of cells of a particular lineage recovered from the peritoneum of a peptide-injected mouse (e.g., 6 hours after injection) normalized for each experiment to the number of cells of the same lineage recovered from the peritoneum of a PBS-injected mouse. Cell numbers for PBS-injected mice ranged from […] to 646,000 cells total; 182,300 to 325,000 CD44^+ cells; 224,000 to 496,000 […] cells; 31,300 to 76,000 B220^+ cells; 18,100 to 21,100 CD3^+ cells), representing the induction of macrophages (Mac-1^+), B cells (B220^+), and T cells (CD3^+). Values represent an average of 6 mice.
In general terms: A flow cytometer gives signals particle by particle.

The subject of test [4] is MDA-MB-231 cells. Briefly: Apoptosis by TUNEL (In situ Cell Death Detection Kit). To be noted: 100 nM, 12 hours. It is filed as cell-based, human. As to the method:
(§2) One million MDA-MB-231 cells were incubated with 100 nM of the OPN, LVVDPK (SEQ ID NO:8), Ac-MLDP (SEQ ID NO:23) or Ac-HKDKMLDP (SEQ ID NO:24) in DME containing 10% FBS in a humidified atmosphere of 5% CO2 at […]. After 12 hours, Caspase 8 and the % of apoptotic cells were determined. Caspase was determined by a fluorescent assay using Chemicon's FLICE/Caspase-8 Fluorometric Protease Assay Kit as described by the manufacturers. Apoptosis was determined using TUNEL using the “In situ Cell Death Detection Kit” (Boehringer-Mannheim, Germany).

For test [5], the system named is Caspase 8. The experiment in a line: FLICE/Caspase-8 Fluorometric Protease Assay. It is filed as cell-based, human. Particulars: 100 nM, 12 hours, MDA-MB-231 cells. Here is the method: as §2
Test [6] deals with peritoneal exudate cells. The experiment in a line: In vivo cellular migration after intraperitoneal injection of osteopontin, peritoneal exudate flow cytometry. The arrangement: species or system Mice. Here is the method: Mice were injected intraperitoneally with varying dosages of K7 osteosarcoma-derived osteopontin. All injection volumes were 200 μl. Injections of vehicle alone (PBS) served as negative controls and vehicle plus 20 μg lipopolysaccharide (LPS) injections served as positive controls for elicitation of peritoneal exudates.
Mice were sacrificed by CO2-asphyxiation at varying times following injection. Immediately after sacrifice, peritoneal exudate was recovered by intraperitoneal injection and recovery of 10 mL PBS. The lavage procedure was performed twice on each mouse. Following this, red blood cells were lysed by hypotonic lysis with ACK lysis buffer (0.15 M NH4Cl, 1.0 mM KHCO3, 0.1 mM Na2EDTA, pH 7.4) for 5 minutes at room temperature, and the preparation was washed in DMEM, 5% FBS. Cells were resuspended in DMEM, 5% FBS for fluorescent antibody staining.
Each sample of cells to be analyzed for specific surface markers was suspended in DMEM, 5% FBS at a concentration of 0.2 to 1 million cells in 50 μl. Fluorescence-labeled antibodies were added at 1 μg/1×10^6 cells, and incubated with the cells for 30 minutes at 4° C. Samples were washed twice with 200 μl of PBS following antibody staining and fixed with 500 μl of 2% paraformaldehyde in PBS. Peritoneal exudate cells were analyzed by dual-color flow cytometry for expression of CD44 (PE), CD 11 b (Mac-1, FITC, macrophage marker), B220 (FITC, B-cell marker), and CD3 (FITC, T-cell marker). All antibodies were purchased from PharMingen and flow cytometric analysis was done using a Coulter EPICS flow cytometer. Controls for non-specific binding and single color controls were included.
To further characterize the effects of osteopontin on in vivo cellular migration, a time course experiment was performed using an osteopontin dosage that elicited peak levels of infiltration. The total cellular response to osteopontin administration peaked sharply at 4 to 6 hours. This is likely to be due to a high rate of clearance from the peritoneal cavity.

Where [7] appears, read: labelled agent in lower chamber, Ab64 in upper chamber.
[8] abbreviates: labelled agent in lower chamber, OPN in upper chamber.
The mark [9] stands for this setting: labelled agent in lower chamber, PBS in upper chamber, 2×10^4 cells.
Where [10] appears, read: labelled agent in lower chamber, SP64 in upper chamber.
Setting [11] is: labelled agent in lower chamber, pep 51 in upper chamber.
Setting [12] is: labelled agent in upper chamber, PBS in lower chamber.

On to “LVLDPK (OTHER INFORMATION: Description of Artificial Sequence:Synthetic Peptide) [peptide 51, chemotactic tryptic peptide of osteopontin]”, for which the “chemotactic activity (in words)” value in test [1] is on record as “chemotactic”. Moreover, the “mean number of migrating cells per random high power field” value is on record as 68* cells per random high power field in test [1] (labelled peptide (50 pmols) in lower chamber, PBS in upper chamber, 1×10^3 cells); 83* cells per random high power field in test [1] (labelled peptide in lower chamber, peptide 49 in upper chamber); 56* cells per random high power field in test [1] (labelled peptide in lower chamber, peptide 50 in upper chamber); 32 cells per random high power field in test [1] (labelled peptide in lower chamber, peptide 51 in upper chamber); 78* cells per random high power field in test [1] (labelled peptide in lower chamber, peptide 52 in upper chamber); 62* cells per random high power field in test [1] (labelled peptide in lower chamber, peptide 53 in upper chamber). The “mean number of migrating cells per random high power field” value in test [1] (labelled peptide in upper chamber, PBS in lower chamber) is given as 13 cells per random high power field. Moreover, the “mean number of migrating cells per six random high powered fields” value in test [1] (setting [7]) was 21 cells per six random high powered fields; in test [1] (setting [8]), 48 cells per six random high powered fields; in test [1] (setting [9]), 248 cells per six random high powered fields; in test [1] (setting [10]), 109 cells per six random high powered fields; in test [1] (setting [11]), 65 cells per six random high powered fields; in test [1] (setting [12]), 6 cells per six random high powered fields. Also, in test [1], the “Migratory Index” value was found to be 1. Also, the MI buffer in test [1] is on record as 10. In test [1], this substance registered an MI of 1. The “chemotactic response of MDA-MB231 (in words)” value in test [1] is “stimulated the chemotactic response”. Further, the MI inhibitory in test [2] was found to be 10. Also, in test [3], the “induction ratio, Total” value is 8.6*. The “induction ratio, Total CD44” value in test [3] is on record as 7.9*. Moreover, the “induction ratio, B-lymphocytes” value in test [3] amounted to 1.3. For the same substance, the “induction ratio, T-lymphocytes” value in test [3] came to 1.3. Further, in test [3], the “induction ratio, Monocytes” value is on record as 7.1*. Besides, the “chemotactic activity in vivo (in words)” value in test [3] is given as “chemotactic to macrophages in vivo”.
Regarding “LVVDPK (OTHER INFORMATION: Description of Artificial Sequence:Synthetic Peptide) [pepA′]”, in test [1], the MI buffer was 9 and the MI is 1. Moreover, in test [2], the MI inhibitory was 8. The “apoptosis (in words)” value in test [4] is listed as “virtually undetectable”. Also, the “Caspase 8 activity (in words)” value in test [5] is “virtually undetectable”.
For “OPN: osteopontin protein; bone OPN in vitro, K7 osteosarcoma-derived osteopontin in Example 3”, the “mean number of migrating cells per six random high powered fields” value in test [1] (setting [7]) was 36 cells per six random high powered fields; in test [1] (setting [8]), 16 cells per six random high powered fields; in test [1] (setting [9]), 214 cells per six random high powered fields; in test [1] (setting [10]) it was 187 cells per six random high powered fields; in test [1] (setting [11]), 44 cells per six random high powered fields; in test [1] (setting [12]), 23 cells per six random high powered fields. Also, in test [1], the “chemotactic response of MDA-MB231 (in words)” value is recorded as “stimulated the chemotactic response”. In test [6] (6 hours after injection), the “number of CD3+ and B220+ cells” value is on record as “only marginally elevated”. Further, the “number of Mac-1+ cells in the infiltrate” value in test [6] (6 hours after injection, over basal levels) was “increased fivefold over basal levels”. Also, the peritoneal cells recovered in test [6] (OPN alone) turned out to be 1.16 million cells. The “number of CD44+ Mac1+ cells” value in test [6] (at a dose around 7 μg) was “nearly sixfold reduction”. In addition, the “dose of peak response of the cellular infiltrate” value in test [6] (intraperitoneal, 6 hours after injection) is reported as “around 13 μg”. The “cellular infiltrate (in words)” value in test [6] (titration into the peritoneum, 6 hours after injection) was “dose dependent increase”. For the same substance, the “induction ratio, Total” value in test [3] came out at 11.3. In test [3], the “induction ratio, Total CD44” value is 9.6*. Further, the “induction ratio, B-lymphocytes” value in test [3] is 1.2. For the same substance, the “induction ratio, T-lymphocytes” value in test [3] came to 1. Also, the “induction ratio, Monocytes” value in test [3] is reported as 10.4*.
In the case of “VLDPK (OTHER INFORMATION: Description of Artificial Sequence:Synthetic Peptide) [pepF]”, in test [1], the “Migratory Index” value was 0.7, the MI buffer is listed as 6 and the MI is recorded as 0.7. The MI inhibitory in test [2] is recorded as 7. In test [3], the “induction ratio, Total” value came out at 4; the “induction ratio, Total CD44” value turned out to be 3.1; the “induction ratio, B-lymphocytes” value is 1.1; the “induction ratio, T-lymphocytes” value stood at 0.8. Also, in test [3], the “induction ratio, Monocytes” value is on record as 2.8 and the “chemotactic activity in vivo (in words)” value is listed as “chemotactic but exhibited less activity”.
